In US6399629B1, “Efflux pump inhibitors” (priority 1998, dated 2002):
Where a name gives a salt, the structure may show the parent alone.

System: Pseudomonas aeruginosa PAM1001
Assay: microbe, parasite or virus in culture
Assay type: cell-based
Settings: for Inhibition (%) of growth of P. aeruginosa PAM1001: Levofloxacin 0.25 μg/mL; for inhibition at 20 µg/mL / inhibition at 40 µg/mL / inhibition at 2.5 µg/mL / inhibition at 5 µg/mL / inhibition at 10 µg/mL: Pseudomonas aeruginosa, PAM1001, read-out: Inhibition (%) of growth of P. aeruginosa PAM1001
Summary of the method: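 P. aeruginosa PAM1001 grown in Mueller Hinton broth from 1×10^6 CFU/mL inoculum with levofloxacin 0.25 microg/mL plus varying EPI concentrations; growth followed by A650 over 18 h at 37° C. Result given as % growth inhibition versus levofloxacin-only culture without EPI.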

[1] = Concentration of Compound 2.5 μg/mL
[2] = Concentration of Compound 5 μg/mL
[3] = Concentration of Compound 10 μg/mL
[4] = Concentration of Compound 20 μg/mL
[5] = Concentration of Compound 40 μg/mL

Q: With “trans-4-Glycylamino-D-proline 3-Biphenylamide Dihydrochloride [Compound D307]” as the compound, how does the “Inhibition (%) of growth of P. aeruginosa PAM1001” value [1] read?
A: 24%

Q: And the “Inhibition (%) of growth of P. aeruginosa PAM1001” value [2]?
A: 5%

Q: And the “Inhibition (%) of growth of P. aeruginosa PAM1001” value [3]?
A: 90%

Q: What about the “Inhibition (%) of growth of P. aeruginosa PAM1001” value [4] of the same compound?
A: 100%

Q: And the “Inhibition (%) of growth of P. aeruginosa PAM1001” value [5]?
A: 100%

Q: Which results are given for `N[C@H]1CN[C@H](C(=O)N[C@H](CCc2ccccc2)C(=O)Nc2cnc3ccccc3c2)C1` [Compound D202, trans-4-Amino-L-Prolyl-D-Homophenylalanine 3-Quinolylamide Trihydrochloride]?
A: inhibition at 20 µg/mL: 21%; inhibition at 40 µg/mL: 86%

Q: Which inhibition at 2.5 µg/mL does the source give for `NCCNC(=O)[C@@H]1C[C@@H](Oc2cccc(-c3ccccc3)c2)CN1` [Compound D601, trans-4-(3-Biphenyloxy)-L-Proline 2-Aminoethylamide Dihydrochloride] here?
A: 20%

Q: And the inhibition at 5 µg/mL?
A: 18%

Q: And the inhibition at 10 µg/mL?
A: 16%

Q: What about the inhibition at 20 µg/mL of the same compound?
A: 86%

Q: And the inhibition at 40 µg/mL?
A: 100%

Q: `NCC(=O)N[C@H]1CN[C@H](C(=O)N2CCN(c3ccccc3Cl)CC2)C1` [Compound D405, 1-(trans-4-Glycylamino-L-Prolyl)-4-(2-Chlorophenyl)-piperazine Dihydrochloride] was tested. Which inhibition at 2.5 µg/mL did it give?
A: 20%

Q: And the inhibition at 5 µg/mL?
A: 19%

Q: And the inhibition at 10 µg/mL?
A: 16%

Q: What about the inhibition at 20 µg/mL of the same compound?
A: -11%

Q: And the inhibition at 40 µg/mL?
A: 58%

Q: Which results are given for “trans-4-Glycylamino-L-Prolyl-4-(2-Chloro-5-Methylphenoxy)-piperidine Dihydrochloride [Compound D416]”?
A: Inhibition (%) of growth of P. aeruginosa PAM1001 [1]: 21%; Inhibition (%) of growth of P. aeruginosa PAM1001 [2]: 11%; Inhibition (%) of growth of P. aeruginosa PAM1001 [3]: 87%; Inhibition (%) of growth of P. aeruginosa PAM1001 [4]: 99%; Inhibition (%) of growth of P. aeruginosa PAM1001 [5]: 99%

Q: How did the “Inhibition (%) of growth of P. aeruginosa PAM1001” value [1] turn out when “trans-4-Glycylamino-L-Proline 3-Biphenylamide Dihydrochloride [Compound D306]” was run?
A: 19%

Q: And the “Inhibition (%) of growth of P. aeruginosa PAM1001” value [2]?
A: 7%

Q: What about the “Inhibition (%) of growth of P. aeruginosa PAM1001” value [3] of the same compound?
A: 93%

Q: What about the “Inhibition (%) of growth of P. aeruginosa PAM1001” value [4] of the same compound?
A: 100%

Q: And the “Inhibition (%) of growth of P. aeruginosa PAM1001” value [5]?
A: 99%

Q: For `NCC(=O)N[C@H]1CCN[C@H](C(=O)Nc2ccc(Oc3ccccc3)cc2)C1` [Compound D330, trans-4-Glycylamino-L-Pipecolinoyl 4-Phenoxy-phenylamide Dihydrochloride], which inhibition at 2.5 µg/mL is on record?
A: 19%

Q: And the inhibition at 5 µg/mL?
A: 18%

Q: And the inhibition at 10 µg/mL?
A: 12%

Q: And the inhibition at 20 µg/mL?
A: 100%

Q: What about the inhibition at 40 µg/mL of the same compound?
A: 100%

Q: What does the source list for `Cl.Cl.NCC(=O)N[C@H]1CN[C@H](COc2ccc(-c3ccccc3)cc2)C1` [Compound D501, (2S,4R)-4-Glycylamino-2-(4-Biphenyloxy)-methylpyrrolidine Dihydrochloride]?
A: Inhibition (%) of growth of P. aeruginosa PAM1001 [1]: 1%; Inhibition (%) of growth of P. aeruginosa PAM1001 [2]: 98%; Inhibition (%) of growth of P. aeruginosa PAM1001 [3]: 100%; Inhibition (%) of growth of P. aeruginosa PAM1001 [4]: 100%; Inhibition (%) of growth of P. aeruginosa PAM1001 [5]: 98%

Q: How did the inhibition at 2.5 µg/mL turn out when `NCC(=O)N[C@H]1CN[C@H](COc2cccc(-c3ccccc3)c2)C1` [Compound D502, (2S,4R)-4-Glycylamino-2-(3-Biphenyloxy)methyl-pyrrolidine Dihydrochloride] was run?
A: 13%

Q: What about the inhibition at 5 µg/mL of the same compound?
A: 88%

Q: What about the inhibition at 10 µg/mL of the same compound?
A: 99%

Q: And the inhibition at 20 µg/mL?
A: 100%

Q: And the inhibition at 40 µg/mL?
A: 100%

Q: Which results are given for `NC[C@H](O)C(=O)N[C@H]1CN[C@H](C(=O)Nc2ccc(Oc3ccccc3)cc2)C1` [Compound D321, trans-4-((S)-3-Amino-2-Hydroxypropionylamino)-L-Proline 4-Phenoxyphenylamide Dihydrochloride]?
A: inhibition at 2.5 µg/mL: 15%; inhibition at 5 µg/mL: 14%; inhibition at 10 µg/mL: 84%; inhibition at 20 µg/mL: 100%; inhibition at 40 µg/mL: 100%

Q: Which inhibition at 2.5 µg/mL does the source give for `NCC(=O)N[C@H]1CCN[C@H](C(=O)N2C[C@H](NC(=O)[C@H](O)CCc3ccccc3)C[C@H]2C(=O)Nc2cnc3ccccc3c2)C1` (mixture of isomers) [Compound D114, trans-4-Glycylamino-L-Pipecolinoyl-trans-4-((R)-2-Hydroxy-4-Phenylbutyrylamino)-L-Proline 3-Quinolylamide Trihydrochloride] here?
A: 20%

Q: And the inhibition at 5 µg/mL?
A: 22%

Q: And the inhibition at 10 µg/mL?
A: 90%

Q: What about the inhibition at 20 µg/mL of the same compound?
A: 100%

Q: What about the inhibition at 40 µg/mL of the same compound?
A: 100%

Q: How did the inhibition at 2.5 µg/mL turn out when `NCCC1CN[C@H](C(=O)N2C[C@H](NC(=O)[C@H](O)CCc3ccccc3)C[C@H]2C(=O)Nc2cnc3ccccc3c2)C1` (stereo partly drawn) [Compound D110, 4-(2-Aminoethyl)-Prolyl-trans-4-((R)-2-Hydroxy-4-Phenylbutyrylamino)-L-Proline 3-Quinolylamide Trihydrochloride] was run?
A: 20%

Q: What about the inhibition at 5 µg/mL of the same compound?
A: 20%

Q: And the inhibition at 10 µg/mL?
A: 100%

Q: And the inhibition at 20 µg/mL?
A: 100%

Q: And the inhibition at 40 µg/mL?
A: 100%

Q: What does the source list for `NCC(O)[C@@H]1C[C@@H](Oc2cccc(-c3ccccc3)c2)CN1` (stereo partly drawn) [Compound D602, (2S,4R)-2-(2-Amino-1-hydroxyethyl)-4-(3-biphenyloxy)pyrrolidine Dihydrochloride]?
A: inhibition at 2.5 µg/mL: 98%; inhibition at 5 µg/mL: 99%; inhibition at 10 µg/mL: 100%; inhibition at 20 µg/mL: 100%; inhibition at 40 µg/mL: 100%

Q: With `NCCS(=O)(=O)N[C@H]1CN[C@H](C(=O)Nc2ccc(Oc3ccccc3)cc2)C1` [Compound D322, trans-4-(2-Aminoethylsulfonylamino)-L-Proline 4-Phenoxyphenylamide Dihydrochloride] as the compound, how does the inhibition at 2.5 µg/mL read?
A: 19%

Q: What about the inhibition at 5 µg/mL of the same compound?
A: 19%

Q: What about the inhibition at 10 µg/mL of the same compound?
A: 17%

Q: And the inhibition at 20 µg/mL?
A: 99%

Q: What about the inhibition at 40 µg/mL of the same compound?
A: 100%

Q: How did the inhibition at 2.5 µg/mL turn out when `NCC(=O)N[C@H]1CN[C@H](C(=O)Nc2ccc(CSc3ccccc3)cc2)C1` [Compound D319, trans-4-Glycylamino-L-Proline 4-(Phenylthiomethyl)-phenylamide Dihydrochloride] was run?
A: 19%

Q: What about the inhibition at 5 µg/mL of the same compound?
A: 18%

Q: What about the inhibition at 10 µg/mL of the same compound?
A: 99%

Q: What about the inhibition at 20 µg/mL of the same compound?
A: 100%

Q: What about the inhibition at 40 µg/mL of the same compound?
A: 100%

Q: For `NCCC[C@@H](N)C(=O)N1C[C@@H](NC(=O)CCCc2ccccc2)C[C@H]1C(=O)Nc1ccc2c(c1)CCC2` [Compound D124, D-Ornithylcis-4-(4-Phenylbutanoyl)amino-L-Proline 5-Indanylamide Dihydrochloride], which inhibition at 2.5 µg/mL is on record?
A: 19%

Q: What about the inhibition at 5 µg/mL of the same compound?
A: 100%

Q: What about the inhibition at 10 µg/mL of the same compound?
A: 100%

Q: And the inhibition at 20 µg/mL?
A: 100%

Q: And the inhibition at 40 µg/mL?
A: 100%

Q: Which results are given for `Cc1cc(C)cc(NC(=O)[C@@H](CCc2ccccc2)NC(=O)[C@@H]2C[C@@H](NC(=O)CN)CN2)c1` [Compound D205, trans-4-Glycylamino-L-Prolyl-D-Homophenylalanine 3,5-Dimethylphenylamide Dihydrochloride]?
A: inhibition at 2.5 µg/mL: 16%; inhibition at 5 µg/mL: 13%; inhibition at 10 µg/mL: 100%; inhibition at 20 µg/mL: 100%; inhibition at 40 µg/mL: 100%

Q: For `NCC(=O)N[C@H]1CN[C@H](C(=O)Nc2ccc(Oc3ccc(Cl)cc3)cc2)C1` [Compound D303, trans-4-Glycylamino-L-Proline 4-(4′-Chlorophenoxy)-phenylamide Dihydrochloride], which inhibition at 2.5 µg/mL is on record?
A: 18%

Q: And the inhibition at 5 µg/mL?
A: 91%

Q: What about the inhibition at 10 µg/mL of the same compound?
A: 100%

Q: And the inhibition at 20 µg/mL?
A: 100%

Q: And the inhibition at 40 µg/mL?
A: 99%
